Assay results reported in US5866597A, “Use of triazine compounds for the treatment of memory and learning disorders” (Glaxo Wellcome Inc., priority 1993, dated 1999).

Assays:
[1] = system: scopolamine-induced deficit in mice; test: Modified light-dark box memory test in mice, scopolamine-induced deficit, drug given immediately post-training (Table 2); format: in vivo, Male albino CD-1 mice; conditions: for Mean latency Day 1 / Mean latency Day 2: ± SEM
Procedure: Male albino CD-1 mice obtained from Charles River were used. They were housed under controlled conditions (temperature 21±2 deg. C., humidity approx. 50%, 12 hour light/dark cycle, food and water ad lib) for one week before use. On the day before test, the mice were housed in groups of six in polythene boxes in the laboratory and marked for identification. Food and water were supplied ad lib. On the test day, animals were weighed and then dosed either 30 minutes before test (piracetam, ondansetron) one hour before test (compound A) or immediately after test.
[…] The dose volume was 10 ml/kg for all routes.
The apparatus consisted of two boxes with an opening 90 mm×60 mm at floor level between them. A plastic door was used to close the opening when required. The smaller box (290 mm×120 mm×120 mm high) was made of opaque plastics, open at the top to allow illumination by normal laboratory lighting. The larger box (305 mm square×280 mm high) was enclosed apart from the single opening.
This consisted of training, with retest 24 hours later. During training, animals were placed individually in the open box facing away from the end with the opening. After a period of exploration, they usually entered the dark box and the latency to entry in seconds was noted. The door to the dark box was closed, and after 30 seconds had elapsed, the animal was removed gently and returned to the holding box. Twenty-four hours later, an identical procedure was used, except that the session ended as soon as the animal had entered the dark box. The latency was again noted. During the interval, the animals were not handled, and were disturbed as little as possible. Each animal was used once only.
Test drugs or control fluids were given before or immediately after the training session.
Group comparisons were made between latencies to enter the dark compartment on the first and second occasions. For both training and retest occasions, comparisons were made between vehicle and treatment groups. The distribution of latencies was skewed on both learning and retest trials (data not shown), so the non-parametric Mann-Whitney U-test was used. The difference between latencies on the two occasions is presented as % decrease on Day 2 compared with Day 1.
The mean latency to enter the dark box±standard error of the mean was calculated from a group of 12 animals. For a given treatment, figures in the columns labelled `Day 1` and `Day 2` show the mean latencies taken from the same group of animals. The difference between data obtained on the two days is illustrated by showing the % decrease, and the data compared using the Mann-Whitney U-test; NS indicates a p value>0.1.

[2] = system: scopolamine-induced deficit in rats; test: Light-dark box memory test in rats, sub-acute dosing: pre-training, pre-training and pre-retest, or four pre-treatments and before training and retest (Table 5); format: in vivo, Male Wistar rats; conditions: for Mean latency Day 5 / Mean latency Day 6: ± SEM
Procedure: Male Wistar rats obtained from Charles River were used. They were housed under controlled conditions (temperature 21±2 deg. C., humidity approx. 50%, 12 hour light/dark cycle, food and water ad lib) for one week before use. On the day before test the rats were permanently housed in groups of six. Food and water were supplied ad lib. On the test day, animals were weighed and then dosed either 30 minutes before test (midazolam), one hour before test (compound A) or immediately after test.
In the sub-acute dosing regimen (see `Procedure`) the rats, housed as above, received six doses of drug or vehicle by the oral route, each 24 hours apart.
All drugs were dissolved or suspended in 0.25% (w/v) aqueous celacol, and administered orally (by gavage), i.p. or s.c. The dose volume was 5 ml/kg for all routes.
An identical apparatus to that described in Example 1 was used, except that the smaller box measured 370 mm×260 mm×190 mm.
This consisted of training as described for mice under section (d) of Example 1.
The procedure was identical with that described above, except that seven groups of rats received compound A or control pre-treatment as 6 oral doses each 24 hours apart, as follows.
Training took place 1 hour after the fifth dose i.e. on day 5. […] The usual retest was performed 24 hours later (on day 6), one hour after the sixth oral treatment.
This was as described under section (e) of Example 1.
The mean latency to enter the dark box±standard error of the mean was calculated from a group of 24 animals (controls in first block) or 12 animals (all other treatments). For a given treatment, figures in the columns labelled `Day 5` and `Day 6` show the mean latencies taken from the same group of animals. The difference between data obtained on the two days is illustrated by showing the % decrease, and the data compared using the Mann-Whitney U-test.

[3] = system: scopolamine-induced pupillary dilatation in rats; test: Pupil diameter measurement in rats (Table 6); format: in vivo, Male Wistar rats; conditions: for Mean pupil diameter: ± SEM
Procedure: (§1) 15 minutes before observation. Under these conditions, which were identical to those used in the learning experiments described in Example 2, changes in salivation and pupil diameter were measured. Salivation was measured by placing a piece of folded filter paper in the rat's mouth and measuring the diameter of the blot in mm after 1 minute. Pupil diameter was measured using a magnifying glass and graticule under normal lighting conditions. For both measures, comparisons were made between control and drug-treated groups using a Student's T-test on independent samples.
(§2) Groups of 6 animals were used.

[4] = system: scopolamine-induced dry mouth in rats; test: Salivation measurement in rats (Table 6); format: in vivo, Male Wistar rats; conditions: for Mean salivation (blot diameter): ± SEM
Procedure: as §1, §2

[5] = system: voltage-sensitive sodium channels; conditions: Lang et al 1993; Lees and Leach 1993; cited from earlier work
[6] = saline s.c. + compound A 20 mg/kg i.v. post-training
[7] = saline s.c. + compound A 40 mg/kg p.o. post-training
[8] = scopolamine 1 mg/kg s.c. + compound A 20 mg/kg i.v. post-training
[9] = scopolamine 1 mg/kg s.c. + compound A 40 mg/kg p.o. post-training
[10] = saline + compound A 2.5 mg/kg p.o. days 1-6
[11] = saline + compound A 10 mg/kg p.o. day 5 only
[12] = saline + compound A 10 mg/kg p.o. days 1-6
[13] = saline + compound A 10 mg/kg p.o. days 5 and 6
[14] = saline + compound A 40 mg/kg p.o. day 5 only
[15] = saline + compound A 40 mg/kg p.o. days 5 and 6
[16] = scopolamine 0.1 mg/kg s.c. + compound A 2.5 mg/kg p.o. days 1-6
[17] = scopolamine 0.1 mg/kg s.c. + compound A 10 mg/kg p.o. day 5 only
[18] = scopolamine 0.1 mg/kg s.c. + compound A 10 mg/kg p.o. days 1-6
[19] = scopolamine 0.1 mg/kg s.c. + compound A 10 mg/kg p.o. days 5 and 6
[20] = scopolamine 0.1 mg/kg s.c. + compound A 40 mg/kg p.o. day 5 only
[21] = scopolamine 0.1 mg/kg s.c. + compound A 40 mg/kg p.o. days 5 and 6
[22] = compound A 10 mg/kg p.o. + saline s.c.
[23] = compound A 40 mg/kg p.o. + saline s.c.
[24] = compound A 40 mg/kg p.o. + scopolamine 0.1 mg/kg s.c.
[25] = compound A pretreatment, p>0.05 vs vehicle

Nc1nnc(-c2cccc(Cl)c2Cl)c(N)n1 [Compound A, 3,5-Diamino-6-(2,3-dichlorophenyl)-1,2,4-triazine]
Reversal of scopolamine-induced deficit ([1]; compound A 20 mg/kg i.v. post-training): no reversal of the scopolamine-induced deficit | Reversal of scopolamine-induced deficit ([1]; compound A 40 mg/kg p.o. post-training): no reversal of the scopolamine-induced deficit | Difference between days, % Decrease ([1]; saline s.c. + compound A 20 mg/kg i.v. post-training, p (0.09)): 26% | Mean latency Day 1 [1, 6]: 19.9 ± 2.7 s | Mean latency Day 2 [1, 6]: 14.8 ± 2.1 s | Difference between days, % Decrease ([1]; saline s.c. + compound A 40 mg/kg p.o. post-training, p <0.05): 30% | Mean latency Day 1 [1, 7]: 20.0 ± 2.3 s | Mean latency Day 2 [1, 7]: 13.9 ± 1.5 s | Difference between days, % Decrease ([1]; scopolamine 1 mg/kg s.c. + compound A 20 mg/kg i.v. post-training, p NS): -1% | Mean latency Day 1 [1, 8]: 20.0 ± 2.3 s | Mean latency Day 2 [1, 8]: 20.3 ± 2.5 s | Difference between days, % Decrease ([1]; scopolamine 1 mg/kg s.c. + compound A 40 mg/kg p.o. post-training, p NS): -23% | Mean latency Day 1 [1, 9]: 18.5 ± 1.8 s | Mean latency Day 2 [1, 9]: 22.7 ± 2.6 s | Effect on scopolamine-induced deficit ([2]; compound A single dose 10 mg/kg before the learning trial): did not alter the scopolamine-induced deficit | Diff. between days, % ([2]; saline + compound A 2.5 mg/kg p.o. days 1-6, p <0.01): 46% | Mean latency Day 5 [2, 10]: 35.3 ± 3.7 s | Mean latency Day 6 [2, 10]: 19.3 ± 2.5 s | Diff. between days, % ([2]; saline + compound A 10 mg/kg p.o. day 5 only, p <0.001): 52% | Mean latency Day 5 [2, 11]: 39.8 ± 3.9 s | Mean latency Day 6 [2, 11]: 19.3 ± 2.5 s | Diff. between days, % ([2]; saline + compound A 10 mg/kg p.o. days 1-6, p <0.01): 44% | Mean latency Day 5 [2, 12]: 34.3 ± 3.6 s | Mean latency Day 6 [2, 12]: 19.1 ± 3.4 s | Diff. between days, % ([2]; saline + compound A 10 mg/kg p.o. days 5 and 6, p <0.001): 48% | Mean latency Day 5 [2, 13]: 37.2 ± 3.1 s | Mean latency Day 6 [2, 13]: 19.3 ± 2.6 s | Diff. between days, % ([2]; saline + compound A 40 mg/kg p.o. day 5 only, p <0.01): 45% | Mean latency Day 5 [2, 14]: 35.2 ± 3.4 s | Mean latency Day 6 [2, 14]: 19.3 ± 3.4 s | Diff. between days, % ([2]; saline + compound A 40 mg/kg p.o. days 5 and 6, p <0.001): 50% | Mean latency Day 5 [2, 15]: 36.0 ± 3.2 s | Mean latency Day 6 [2, 15]: 17.8 ± 2.2 s | Diff. between days, % ([2]; scopolamine 0.1 mg/kg s.c. + compound A 2.5 mg/kg p.o. days 1-6, p NS): 16% | Mean latency Day 5 [2, 16]: 33.8 ± 3.0 s | Mean latency Day 6 [2, 16]: 28.4 ± 3.4 s | Diff. between days, % ([2]; scopolamine 0.1 mg/kg s.c. + compound A 10 mg/kg p.o. day 5 only, p NS): -4% | Mean latency Day 5 [2, 17]: 34.3 ± 2.8 s | Mean latency Day 6 [2, 17]: 15.8 ± 4.5 s | Diff. between days, % ([2]; scopolamine 0.1 mg/kg s.c. + compound A 10 mg/kg p.o. days 1-6, p <0.01): 41% | Mean latency Day 5 [2, 18]: 35.4 ± 3.2 s | Mean latency Day 6 [2, 18]: 20.8 ± 3.6 s | Diff. between days, % ([2]; scopolamine 0.1 mg/kg s.c. + compound A 10 mg/kg p.o. days 5 and 6, p NS (0.1)): 28% | Mean latency Day 5 [2, 19]: 38.2 ± 4.3 s | Mean latency Day 6 [2, 19]: 27.7 ± 3.5 s | Diff. between days, % ([2]; scopolamine 0.1 mg/kg s.c. + compound A 40 mg/kg p.o. day 5 only, p printed #0.001): 46% | Mean latency Day 5 [2, 20]: 33.3 ± 2.6 s | Mean latency Day 6 [2, 20]: 18.0 ± 2.0 s | Diff. between days, % ([2]; scopolamine 0.1 mg/kg s.c. + compound A 40 mg/kg p.o. days 5 and 6, p <0.01): 48% | Mean latency Day 5 [2, 21]: 33.6 ± 3.6 s | Mean latency Day 6 [2, 21]: 17.5 ± 2.5 s | Mean pupil diameter [3, 22]: 7.00 ± 0.58 mm × 10 | Mean pupil diameter [3, 23]: 7.75 ± 0.85 mm × 10 | Mean pupil diameter [3, 24]: 23.0 ± 1.78 mm × 10 | Influence on scopolamine-induced change in pupil diameter [3, 25]: no influence on the scopolamine-induced changes | Mean salivation (blot diameter) [4, 22]: 8.75 ± 1.11 mm | Mean salivation (blot diameter) [4, 23]: 8.25 ± 0.63 mm | Mean salivation (blot diameter) [4, 24]: 2.13 ± 0.63 mm | Influence on scopolamine-induced change in salivation [4, 25]: no influence on the scopolamine-induced changes | Block of voltage-sensitive sodium channels [5]: use-dependent block of voltage-sensitive sodium channels
